What was measured:
Experiment in all cases: Abscisic acid-sensitivity of seed embryo (seeds cut in halves, sprouting and sprout stretching)
Assay type in all cases: in vivo
[1] = system: Minaminokomugi wheat seeds (strong dormancy)
Experimental: (§1) Next, seeds obtained from 3 varieties Minaminokomugi, Sanin 1 and Tozan 18) and seeds in which dormancy has been disrupted (Minaminokomugi, Sanin 1) were soaked individually in 5% (W/V) Benlate T(DuPont, USA) for 10 minutes, then sterilized by washing with distilled water. The grains of these wheat seeds were cut in halves to be laid in pet dish. A section where 8 mL of abscisic acid (ABA) solution was added and a section where 8 mL of distilled water was added were produced for each seed, followed by culturing at 22° C. for 6 days to determine the sprouting rate and the degree of sprout stretching.

[2] = system: Minaminokomugi wheat seeds (the dormancy has been disrupted)
Experimental: as §1

[3] = system: Sanin 1 wheat seeds (the dormancy has been disrupted)
Experimental: as §1

[4] = system: Sanin 1 wheat seeds (weak dormancy)
Experimental: as §1

[5] = system: Tozan 18 wheat seeds (weak dormancy)
Experimental: as §1

With `CC1=CC(=O)CC(C)(C)[C@@]1(O)/C=C/C(C)=C\C(=O)O` [ABA, abscisic acid] the “Sprouting Rate (%)” value ([1]; Minaminokomugi, seeds cut in halves, + 10 μM ABA, 22° C., 6 days) was 0%, the abscisic acid-sensitivity ([1]; seed of Minaminokomugi with strong dormancy) was “strong abscisic acid-sensitivity” and the “Sprouting Rate (%)” value ([2]; Minaminokomugi (dormancy disrupted), seeds cut in halves, + 10 μM ABA, 22° C., 6 days) was 70%. For the same compound, the abscisic acid-sensitivity ([2]; seeds of Minaminokomugi in which dormancy has been disrupted) was “weak abscisic acid-sensitivity or insensitivity”, the “Sprouting Rate (%)” value ([3]; Sanin 1 (dormancy disrupted), seeds cut in halves, + 10 μM ABA, 22° C., 6 days) was 100% and the abscisic acid-sensitivity ([3]; seeds of Sanin 1 in which dormancy has been disrupted) was “weak abscisic acid-sensitivity or insensitivity”. For the same compound, the “Sprouting Rate (%)” value ([4]; Sanin 1, seeds cut in halves, + 10 μM ABA, 22° C., 6 days) was 100%, the abscisic acid-sensitivity ([4]; seeds of Sanin 1 with weak dormancy) was “weak abscisic acid-sensitivity or insensitivity” and the “Sprouting Rate (%)” value ([5]; Tozan 18, seeds cut in halves, + 10 μM ABA, 22° C., 6 days) was 100%. The abscisic acid-sensitivity ([5]; seeds of Tozan 18 with weak dormancy) was “weak abscisic acid-sensitivity or insensitivity”.
